Reference: patent US9751854B2 (Millennium Pharmaceuticals, Inc., priority 2014, dated 2017)

Target: human VPS34 (Homo sapiens (Human), UniProt Q8NEB9)
Assay: Human VPS34 enzyme assay (Adapta TR-FRET ADP detection)
Type: biochemical
Design: Percent Inhibition: dose or concentration left out as unconfirmed
Conditions: not given

Chain of human VPS34 (Q8NEB9 whole entry): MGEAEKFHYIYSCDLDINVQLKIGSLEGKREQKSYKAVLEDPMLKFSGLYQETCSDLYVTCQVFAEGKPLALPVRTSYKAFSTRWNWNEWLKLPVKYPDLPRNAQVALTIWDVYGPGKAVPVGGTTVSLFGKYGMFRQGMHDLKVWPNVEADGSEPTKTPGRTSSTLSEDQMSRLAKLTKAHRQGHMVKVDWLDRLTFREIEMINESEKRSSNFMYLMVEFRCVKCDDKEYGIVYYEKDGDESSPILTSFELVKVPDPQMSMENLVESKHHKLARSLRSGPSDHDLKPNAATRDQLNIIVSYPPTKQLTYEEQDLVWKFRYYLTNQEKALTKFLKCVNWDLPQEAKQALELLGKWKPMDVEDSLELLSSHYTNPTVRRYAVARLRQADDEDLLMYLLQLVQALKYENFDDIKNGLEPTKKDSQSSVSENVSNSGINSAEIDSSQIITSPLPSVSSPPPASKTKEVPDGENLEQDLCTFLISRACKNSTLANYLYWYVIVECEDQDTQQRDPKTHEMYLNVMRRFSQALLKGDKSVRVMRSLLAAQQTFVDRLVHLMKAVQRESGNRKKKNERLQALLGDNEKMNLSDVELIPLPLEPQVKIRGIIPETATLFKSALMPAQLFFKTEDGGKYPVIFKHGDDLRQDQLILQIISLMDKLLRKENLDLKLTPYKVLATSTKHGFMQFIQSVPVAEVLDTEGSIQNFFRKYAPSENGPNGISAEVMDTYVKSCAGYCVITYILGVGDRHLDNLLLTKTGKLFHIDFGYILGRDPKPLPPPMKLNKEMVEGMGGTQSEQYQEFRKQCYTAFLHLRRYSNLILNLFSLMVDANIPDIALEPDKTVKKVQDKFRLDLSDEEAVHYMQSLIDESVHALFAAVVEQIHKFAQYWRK

For CC(=O)Nc1cc(-c2cnc(C)c(NS(=O)(=O)c3cc(F)ccc3F)c2)ccn1 [Compound I-52], the “Percent Inhibition” value was greater than 99%.
For CC(=O)Nc1cc(-c2cnc(N)c(S(=O)(=O)NCC(C)C)c2)ccn1 [Compound I-73, N-[6-amino-5-(isobutylsulfamoyl)-3,4′-bipyridin-2′-yl]acetamide], the “Percent Inhibition” value was greater than 99%.

Same assay, conditions: IC50 range class

First: COC(=O)Nc1cc(-c2cnc3ccn(CC4CC4)c3c2)ccn1 [Compound I-42, Methyl {4-[1-(cyclopropylmethyl)-1H-pyrrolo[3,2-b]pyridin-6-yl]pyridin-2-yl}carbamate]
Second: CC(=O)Nc1cc(-c2cnc(NCC3CC3)c(N)c2)ccn1 [Compound I-53, N-{5-amino-6-{(cyclopropylmethyl)amino]-3,4′-bipyridin-2′-yl}acetamide]
The IC50 of the first is lower: 0.01 to 0.05 µM for the first, greater than 0.1 µM for the second. The first is the more potent here.

CC(=O)Nc1cc(-c2cnc(N)c(S(=O)(=O)Nc3ccccc3)c2)ccn1 [Compound I-43] and CC(=O)Nc1cc(-c2cnc(N)c(S(=O)(=O)N(C)Cc3ccccc3)c2)ccn1 [Compound I-76, N-{6-amino-5-[benzyl(methyl)sulfamoyl]-3,4′-bipyridin-2′-yl}acetamide] cannot be ordered by IC50: less than 0.01 µM for the first, less than 0.01 µM for the second.

CCc1ccc(S(=O)(=O)Nc2cc(-c3ccnc(NC(C)=O)c3)cnc2C)cc1 [Compound I-44, N-(5-{[(4-ethylphenyl)sulfonyl]amino}-6-methyl-3,4′-bipyridin-2′-yl)acetamide] and CC(=O)Nc1cc(-c2cnc(C)c(NS(=O)(=O)c3ccc(C)cc3)c2)ccn1 [Compound I-80, N-(6-methyl-5-{[(4-methylphenyl)sulfonyl]amino]-3,4′-bipyridin-2′-yl)acetamide] cannot be ordered by IC50: less than 0.01 µM for the first, less than 0.01 µM for the second.

CC(=O)Nc1cc(-c2cnc(C)c(NS(=O)(=O)c3cccnc3)c2)ccn1 [Compound I-45, N-{6-methyl-5-[(pyridin-3-ylsulfonyl)amino]-3,4′-bipyridin-2′-yl}acetamide] and CC(=O)Nc1cc(-c2cnc(C)c(NS(=O)(=O)c3ccccc3)c2)ccn1 [Compound I-84, N-{6-methyl-5-[(phenylsulfonyl)amino]-3,4′-bipyridin-2′-yl}acetamide] cannot be ordered by IC50: less than 0.01 µM for the first, less than 0.01 µM for the second.

First: CC(=O)Nc1cc(-c2cnc(C)c(N(C)S(=O)(=O)c3ccccc3)c2)ccn1 [Compound I-46, N-{6-methyl-5-[methyl(phenylsulfonyl)amino]-3,4′-bipyridin-2′-yl}acetamide]
Second: COc1ccccc1S(=O)(=O)Nc1cc(-c2ccnc(NC(C)=O)c2)cnc1C [Compound I-74, N-(5-{[(2-methoxyphenyl)sulfonyl]amino}-6-methyl-3,4′-bipyridin-2′-yl)acetamide]
The IC50 of the first is higher: 0.01 to 0.05 µM for the first, less than 0.01 µM for the second. The second is the more potent here.

First: CC(=O)Nc1cc(-c2cncc(S(=O)(=O)N3CCCC3)c2)ccn1 [Compound I-47, N-[5-(pyrrolidin-1-ylsulfonyl)-3,4′-bipyridin-2′-yl]acetamide]
Second: CC(=O)Nc1cc(-c2cncc(S(C)(=O)=O)c2)ccn1 [Compound I-51, N-[5-(methylsulfonyl)-3,4′-bipyridin-2′-yl]acetamide]
The IC50 of the first is lower: 0.01 to 0.05 µM for the first, 0.05 to 0.1 µM for the second.

Compared with CC(=O)Nc1cc(-c2cncc(C(=O)N(C)C)c2)ccn1 [Compound I-48, 2′-acetamido-N,N-dimethyl-3,4′-bipyridine-5-carboxamide], CC(=O)Nc1cc(-c2cnc(C)c(C(=O)N(C)C)c2)ccn1 [Compound I-75, 2′-acetamido-N,N,6-trimethyl-3,4′-bipyridin-5-carboxamide] is lower in IC50: greater than 0.1 µM for the first, 0.05 to 0.1 µM for the second.

Compared with CC(=O)Nc1cc(-c2cnc(N)c(S(=O)(=O)NCC3CC3)c2C)ccn1 [Compound I-49, N-{6-amino-5-[(cyclopropylmethyl)sulfamoyl]-4-methyl-3,4′-bipyridin-2′-yl}acetamide], CC(=O)Nc1cc(-c2cnc(N)c(S(=O)(=O)NCC(C)C)c2)ccn1 [Compound I-73, N-[6-amino-5-(isobutylsulfamoyl)-3,4′-bipyridin-2′-yl]acetamide] is lower in IC50: 0.05 to 0.1 µM for the first, less than 0.01 µM for the second. The second is the more potent here.

First: CC(=O)Nc1cc(-c2cnc(N)c(S(=O)(=O)Cc3ccccc3C(F)(F)F)c2)ccn1 [Compound I-50, N-(6-amino-5-{[2-(trifluoromethyl)benzyl]sulfonyl}-3,4′-bipyridin-2′-yl)acetamide]
Second: CC(=O)Nc1cc(-c2cnc(C)c(NS(=O)(=O)c3ccccc3C(F)(F)F)c2)ccn1 [Compound I-62, N-[6-methyl-5-({[2-(trifluoromethyl)phenyl]sulfonyl}amino)-3,4′-bipyridin-2′-yl]acetamide]
The IC50 of the first is higher: 0.01 to 0.05 µM for the first, less than 0.01 µM for the second.

CC(=O)Nc1cc(-c2cnc(C)c(NS(=O)(=O)c3cc(F)ccc3F)c2)ccn1 [Compound I-52] and CC(=O)Nc1cc(-c2cnc(C)c(NS(=O)(=O)c3ccc(F)c(F)c3)c2)ccn1 [Compound I-59, N-(5-{[(3,4-difluorophenyl)sulfonyl]amino}-6-methyl-3,4′-bipyridin-2′-yl)acetamide] cannot be ordered by IC50: less than 0.01 µM for the first, less than 0.01 µM for the second.

CC(=O)Nc1cc(-c2cnc3[nH]cc(CN4CCCC4)c3c2)ccn1 [Compound I-54, N-{4-[3-(pyrrolidin-1-ylmethyl)-1H-pyrrolo[2,3-b]pyridin-5-yl]pyridin-2-yl}acetamide] and CC(=O)Nc1cc(-c2cnc3[nH]cc(CN(C)C)c3c2)ccn1 [Compound I-85, N-(4-{3-[(dimethylamino)methyl]-1H-pyrrolo[2,3-b]pyridin-5-yl}pyridin-2′-yl)acetamide] cannot be ordered by IC50: greater than 0.1 µM for the first, greater than 0.1 µM for the second.

First: COC(=O)Nc1cc(-c2cnc(N)c(C(=O)N(C)C)c2)ccn1 [Compound I-55, methyl [6-amino-5-(dimethylcarbamoyl)-3,4′-bipyridin-2′-yl]carbamate]
Second: CNC(=O)c1cc(-c2ccnc(NC(C)=O)c2)cnc1N [Compound I-57, 2′-acetamido-6-amino-N-methyl-3,4′-bipyridine-5-carboxamide]
The IC50 of the first is lower: less than 0.01 µM for the first, 0.01 to 0.05 µM for the second.

Compared with CC(=O)Nc1cc(-c2cnc(Cl)c(NS(=O)(=O)c3ccccc3)c2)c(C)cn1 [Compound I-56, N-{6-chloro-5′-methyl-5-[(phenylsulfonyl)amino]-3,4′-bipyridin-2′-yl]acetamide], CC(=O)Nc1cc(-c2cnc(C)c(NS(=O)(=O)c3cccc(C(C)(C)C)c3)c2)ccn1 [Compound I-70] is lower in IC50: 0.01 to 0.05 µM for the first, less than 0.01 µM for the second.

COc1cc(F)ccc1S(=O)(=O)Nc1cc(-c2ccnc(NC(C)=O)c2)cnc1C [Compound I-58, N-(5-{[(4-fluoro-2-methoxyphenyl)sulfonyl]amino}-6-methyl-3,4′-bipyridin-2′-yl)acetamide] and CNc1ncc(-c2ccnc(NC(C)=O)c2)cc1S(=O)(=O)Nc1ccc(F)cc1F [Compound I-63, N-{5-[(2,4-difluorophenyl)sulfamoyl]-6-(methylamino)-3,4′-bipyridin-2′-yl}acetamide] cannot be ordered by IC50: less than 0.01 µM for the first, less than 0.01 µM for the second.

CC(=O)Nc1cc(-c2cnc(N)c(C(=O)N3CCC(F)(F)C3)c2)ccn1 [Compound I-60, N-{6-amino-5-[(3,3-difluoropyrrolidin-1-yl)carbonyl]-3,4′-bipyridin-2′-yl}acetamide] and CC(=O)Nc1cc(-c2cnc(N)c(C(=O)N3CCN(C)CC3)c2)ccn1 [Compound I-79, N-[6-amino-5-[(4-methylpiperazin-1-yl)carbonyl]-3,4′-bipyridin-2′-yl}acetamide] fall in the same range of IC50: 0.01 to 0.05 µM for the first, 0.01 to 0.05 µM for the second.

CC(=O)Nc1cc(-c2cnc(N)c(S(N)(=O)=O)c2)ccn1 [Compound I-61, N-(6-amino-5-sulfamoyl-3,4′-bipyridin-2′-yl)acetamide] and CCS(=O)(=O)c1cc(-c2ccnc(NC(C)=O)c2)cnc1N [Compound I-69, N-[6-amino-5-(ethylsulfonyl)-3,4′-bipyridin-2′-yl]acetamide] fall in the same range of IC50: 0.01 to 0.05 µM for the first, 0.01 to 0.05 µM for the second.

CC(=O)Nc1cc(-c2cnc(NCC3CC3)c(NCC3CC3)c2)ccn1 [Compound I-65, N-{5,6-bis[(cyclopropylmethyl)amino]-3,4′-bipyridin-2′-yl}acetamide] and CC(=O)Nc1cc(-c2cnc(C)c(N(CC3CC3)S(=O)(=O)C3CC3)c2)ccn1 [Compound I-83, N-{5-[(cyclopropylmethyl)(cyclopropylsulfonyl)amino]-6-methyl-3,4′-bipyridin-2′-yl}acetamide] cannot be ordered by IC50: greater than 0.1 µM for the first, greater than 0.1 µM for the second.

First: CC(=O)Nc1cc(-c2cnc3[nH]c(C)nc3c2)ccn1 [Compound I-66, N-[4-(2-methyl-3H-imidazo[4,5-b]pyridin-6-yl)pyridin-2-yl]acetamide]
Second: CC(=O)Nc1cc(-c2cnc3c(c2)CCN3)ccn1 [Compound I-67, N-[4-(2,3-dihydro-1H-pyrrolo[2,3-b]pyridin-5-yl)pyridin-2-yl]acetamide]
The IC50 of the first is higher: greater than 0.1 µM for the first, 0.05 to 0.1 µM for the second. The second is the more potent here.

Going from CC(=O)Nc1cc(-c2cnc3c(c2)NS(=O)(=O)N3CC2CC2)ccn1 [Compound I-68, N-{4-[3-(cyclopropylmethyl)-2,2-dioxido-1,3-dihydro[1,2,5]thiadiazolo[3,4-b]pyridin-6-yl)pyridin-2-yl}acetamide] to CC(=O)Nc1cc(-c2cnc(N)c(C(=O)N3CCC(C)CC3)c2)ccn1 [Compound I-81, N-{6-amino-5-[[4-methylpiperidin-1-yl)carbonyl]-3,4′-bipyridin-2′-yl}acetamide], the IC50 falls from greater than 0.1 µM to less than 0.01 µM.

First: CC(=O)Nc1cc(-c2cnc(N)c(C(=O)N3CCc4ccccc43)c2)ccn1 [Compound I-71, N-[6-amino-5-(2,3-dihydro-1H-indol-1-ylcarbonyl)-3,4′-bipyridin-2′-yl]acetamide]
Second: CC(=O)Nc1cc(-c2cnc(N)c(C(=O)Nc3cccc(F)c3)c2)ccn1 [Compound I-82, 2′-acetamido-6-amino-N-(3-fluorophenyl)-3,4′-bipyridine-5-carboxamide]
The IC50 of the first is lower: less than 0.01 µM for the first, 0.01 to 0.05 µM for the second. The first is the more potent here.

CC(=O)Nc1cc(-c2cnc(C)c(NS(=O)(=O)C3CCCCC3)c2)ccn1 [Compound I-72, N-{5-[(cyclohexylsulfonyl)amino]-6-methyl-3,4′-bipyridin-2′-yl]acetamide] and CC(=O)Nc1cc(-c2cnc(C)c(NS(=O)(=O)c3cccc4ccccc34)c2)ccn1 [Compound I-78, N-[6-methyl-5-[(1-naphthylsulfonyl)amino]-3,4′-bipyridin-2′-yl}acetamide] cannot be ordered by IC50: less than 0.01 µM for the first, less than 0.01 µM for the second.

CC(=O)Nc1cc(-c2cnc(N)c(S(=O)(=O)N(C(C)C)C(C)C)c2)ccn1 [Compound I-77, N-[6-amino-5-(diisopropylsulfamoyl)-3,4′-bipyridin-2′-yl]acetamide] and CC(=O)Nc1cc(-c2ccc(S(=O)(=O)Nc3cc(-c4ccnc(NC(C)=O)c4)cnc3C)c(F)c2)ccn1 [Compound I-86, N-(4-{4-[(2′-acetamido-6-methyl-3,4′-bipyridin-5-yl)sulfamoyl]-3-fluorophenyl}pyridin-2-yl)acetamide] cannot be ordered by IC50: less than 0.01 µM for the first, less than 0.01 µM for the second.
